Source: patent US20080221078A1, “Use of a CB1 Antagonist for Treating Side Effects and Negative Symptoms of Schizophrenia” (priority 2005, published 2008)

Assays:
[1] = test system: Male Sprague Dawley rats; assay: Holeboard test (working memory performance); format: in vivo, rat
Description: Similarly, a working memory performance in a rat hole board model has been used to measure various cognition deficits. The hole board task is a well-known and widely used assay to measure working and reference memory in rodents. This model utilizes a board with 8 holes, each baited with a food reward, thus taking advantage of the rodent's natural propensity to forage for food. In a modified version, it has now been able to assess improvements in working memory performance without the use of amnestic agents. Male Sprague Dawley rats are allowed to find and consume 4 of the 8 rewards and then removed to the home cage for 2 minutes. They are then returned and allowed to find and consume the remaining 4 rewards. Any returns to holes already visited are considered working memory errors.
Animals: Male Sprague Dawley rats (Charles River) were housed on a 12 hour light/dark cycle, with lights on at 06:00. Rats were maintained at 80% of their normal body weight, with average starting weights at 200-220 grams. Rats were acclimated to the testing chamber (Med-Associates, Inc. hole board in a ventilated, sound-attenuating cubicle) for four 10-minute trials over a two-day period 24 hours prior to drug treatments. The testing chamber contains eight holes, each of which is baited with a food reward (cocoa puff). Procedure: Each experiment was carried over two-three days, with a 3 day (experiment 1), 4 day (experiment 2), and 3 day (experiment 3) washout in between. Thirty two animals were used for each experiment, with each animal pseudo-randomly assigned to treatment groups such that each animal received two of the four-five treatments, with an even distribution of all possible treatment-treatment combinations. There were a total of 16 animals per treatment group. On test days, rats were injected intraperitoneally (i.p.) with N-{1-[bis(4-chlorophenyl)methyl]azetidin-3-yl}-N-(3,5-difluorophenyl)methylsulfonamide (Example 2) (Exp 1: 0.3, 1, or 3 mg/kg; Exp 2: 1, 3 or 10 mg/kg) or vehicle (distilled water with 1% tween). For Exp 3, rats were injected i.p. with risperidone followed by Example 2 (Exp 3: 0.010, 0.10, or 1.0 mg/kg with 3 mg/kg Example 2) or vehicle (0.9% NaCl with 1% tween). The rats were then placed in the test chamber 60 minutes later. After consuming 4 food rewards, the rats were removed from the chamber for 2 minutes and returned to their home cage. They were then returned to the chamber and allowed to retrieve and finish the remaining four rewards, or for a total of 10 minutes. […] The number of visits to holes that they have already visited were noted. Drugs: Doses of Example 2 were 0.3, 1 and 3 mg/kg (experiment 1) and 1, 3 and 10 mg/kg (experiment 2). Example 2 was put into suspension with distilled water (exp 1 & 2) or 0.9% NaCl (exp 3), with the addition of tween 80. Doses of risperidone (antipsychotic, Sigma) were 0.010, 0.10, and 1.0 mg/kg (experiment 3). risperidone was solubilized in 0.9% NaCl with the addition of 1% tween 80,

[2] = test system: Male Sprague-Dawley rats; assay: Antipsychotic induced catalepsy (bar test); settings: for olanzapine-induced catalepsy: olanzapine 10 mg/kg ip
Description: (§3) Animals: Male Sprague-Dawley rats (Charles River Laboratories) weighing 267-457 g were used. The animals were housed under standard laboratory conditions as outlined in the NIH Guide for Care and Use of Laboratory Animals. They were maintained on a 12:12 light/dark cycle with tap water and Lab Diet rodent chow ad libitum. Rats were acclimatized to the experimental room for 60 min prior to injections. Procedure: The test for catalepsy consists of placing an individual animal in a white translucent plastic box (26×20×15 cm) with a wooden dowel mounted horizontally 10 cm from the floor and 4 cm from one end of the box. The floor is covered with approximately 1 cm of bedding material. Test animals are transferred from the vivarium in their home cages to the experimental room and are allowed to acclimatize for 60 mins. Five animals are kept in a cage. The animals are transferred into another cage after treatment. […] 30 mins after the second treatment, animals were placed individually in the white translucent plastic boxes and tested for catalepsy following a one minute acclimatization period. A group of five animals are tested at a time. Each treatment group consists of 10 animals.
(§4) At the end of the one minute acclimation period, each animal is gently grasped around the shoulders and under the forepaws, and gently placed on the wooden dowel. The amount of time each rat spends with at least one forepaw on the bar determined for a maximum period of 180 seconds. This is repeated three times.
(§5) Haloperidol was used at the dose of 1 mg/kg.
(§6) Haloperidol was dissolved in distilled water via dilution of a 5 mg/ml stock solution in distilled water. Olanzapine was dissolved in three drops of HCl prior to the addition of distilled water to full volume.

[3] = test system: rats; assay: MK-801-induced persistent latent inhibition (conditioned emotional response procedure); format: in vivo, rat
Description: When the bottle was not present, the hole was covered by a metal lid. Licks were detected by a Campden Instruments drinkometer. The preexposed to-be-conditioned stimulus was a 10 sec, 80 dB, 2.8 kHz tone produced by a Sonalert module. Shock was supplied through the floor by a Campden Instruments shock generator and shock scrambler set at 0.5 mA and 1 sec duration. Equipment programming and data recording were computer controlled.
Water in the test apparatus was given in addition to the daily ration of 1 h given in the home cages.
Shock immediately followed tone termination. The first tone-shock pairing was given 5 min after the start of the session. After the last pairing, rats were left in the experimental chamber for an additional 5 min.
When the rat completed 75 licks the tone was presented for 5 min. The following times were recorded: Time to first lick, time to complete licks 1-50, time to complete licks 51-75 (before tone onset) and time to complete licks 76-100 (after tone onset). Times to complete licks 76-100 were logarithmically transformed to allow parametric analysis of variance. Longer log times indicate stronger suppression of drinking.

[4] = test system: Female Wistar rats on high fat diet; assay: Antipsychotic (olanzapine) induced weight gain
Description: Animals: Female Wistar rats on high fat diet were used in this Example.

[5] = test system: Male CD-1 mice; assay: PCP-induced locomotion; format: in vivo, mouse
Description: (§1) Animals: Male CD-1 mice (Charles River Laboratories) weighing 20-30 g were used. Male Sprague-Dawley rats (Charles River Laboratories) weighing 250-433 g were used. […] Procedure: A standard automated locomotion assay was employed (see, for example: R. Christopher Pierce and Peter Kalivas. (1997) Locomotor Behavior. In: Current Protocols in Neuroscience, Volume 3, 8.1.1-8.1.8. G. P. Taylor, Editor. New York: John Wiley & Sons, Inc.). Horizontal activity was measured by beam breaks of photocells lining the chamber exterior to the activity boxes. The activity was measured for 60 min during spontaneous locomotion or 90 min for the PCP or amphetamine-induced assays. Example 2 was administered per os (po) with a 1 hr pre-treatment. […] PCP or amphetamine was administered ip or subcutaneous (sc), respectively, with no pre-treatment. When pre-treatment time elapsed for each rodent, the activity cage was transferred from its holding rack and placed into its own locomotion chamber. Independent start time is possible with the recording of activity commencing almost immediately. The computer automatically times out each chamber individually when the session has ended. Drugs: Doses of Example 2 for mice were 0.3, 1, 3, and 10 mg/kg, p.o. The lowest dose was not tested in spontaneous locomotion for rats. The three highest doses of Example 2 were tested against PCP-induced and amphetamine-induced locomotion in mice and rats, respectively. The conventional antipsychotic haloperidol was used in co-administration with Example 2 (1, 3, and 10 mg/kg) at the doses of 0.1 and 0.2 mg/kg in mice to reverse PCP-induced locomotion. Haloperidol was co-administered at the dose of 0.3 mg/kg in rats to reverse amphetamine-induced locomotion.
(§2) Phencyclidine and amphetamine were dissolved in distilled water.

[6] = test system: Male Sprague-Dawley rats; assay: Amphetamine-induced locomotion; format: in vivo, rat
Description: as §1, §2

[7] = Antipsychotic induced catalepsy (bar test); settings: male, Sprague-Dawley, rat, in vivo, intraperitoneal
Description: as §3, §4, §5, §6

For “N-{1-[Bis(4-chlorophenyl)methyl]azetidin-3-yl}-N-(3,5-difluorophenyl)methylsulfonamide [Example 2]”, the “number of working memory errors compared to vehicle treated animals” value ([1]; Experiment 1, 0.3 mg/kg i.p., after 2 minute delay) was “but not the 0.3 or 1 mg/kg doses”, the “number of working memory errors compared to vehicle treated animals” value ([1]; Experiment 1, 1 mg/kg i.p., after 2 minute delay) was “but not the 0.3 or 1 mg/kg doses” and the “number of working memory errors compared to vehicle treated animals” value ([1]; Experiment 1, 3 mg/kg i.p., after 2 minute delay, p<0.05) was “significant decrease”. The “number of working memory errors compared to vehicle treated animals” value ([1]; Experiment 2, 3 mg/kg i.p., after 2 minute delay, p<0.05) was “significant decrease”, the “number of working memory errors compared to vehicle treated animals” value ([1]; Experiment 2, 10 mg/kg i.p., after 2 minute delay, p<0.05) was “significant decrease” and the “number of working memory errors compared to vehicle treated animals” value ([1]; Experiment 3, 3 mg/kg Example 2 in combination with 0.10 mg/kg risperidone i.p., p<0.05) was “significant decrease”. The “number of working memory errors compared to vehicle treated animals” value ([1]; Experiment 3, 3 mg/kg i.p. Example 2 alone, p<0.05) was “significant decrease”, the “minimum effective dose for improvement in working memory performance” value ([1]; i.p.) was 3 mg/kg and the olanzapine-induced catalepsy ([2]; Example 2 3 mg/kg orally) was “significantly reversed”. The haloperidol-induced catalepsy ([2]; Example 2 10 mg/kg orally, haloperidol 1 mg/kg ip) was “significantly reversed”, the olanzapine-induced catalepsy ([2]; Example 2 10 mg/kg orally) was “significantly reversed” and the “MK801-induced persistent latent inhibition” value ([3]; 1, 3 and 10 mg/kg i.p., 60 minutes prior to pre-exposure and conditioning) was “reversed”. The “weight gain vs. saline controls” value ([4]; 10 mg/kg Example 2 i.p. with olanzapine 3 mg/kg i.p.) was “not significant from saline controls”, the weight vs. saline ([4]; Example 2 alone 10 mg/kg i.p.) was “no significant effect” and the “weight gain elicited by olanzapine” value ([4]; co-administration of Example 2 1, 3, and 10 mg/kg i.p. with olanzapine 3 mg/kg i.p.) was “dose dependent attenuation”. For the same compound, the “reversal of locomotor hyperactivity induced by PCP” value ([5]; Example 2 alone 1, 3, and 10 mg/kg p.o.) was “no significant reversal”, the “effect of co-treatment with haloperidol on PCP-induced locomotion” value ([5]; haloperidol 0.1 and 0.2 mg/kg ip with Example 2 1, 3, 10 mg/kg p.o.) was “yielded the same effects whether or not Example 2 was present or absent” and the “effect of co-treatment with olanzapine on PCP-induced locomotion” value ([5]; olanzapine 0.03 and 0.3 mg/kg ip with Example 2 1, 3, 10 mg/kg p.o.) was “yielded the same effects whether or not Example 2 was present or absent”. The “reversal of locomotor hyperactivity induced by d-AMPH” value ([6]; rats, Example 2 alone 1, 3, and 10 mg/kg p.o.) was “no significant reversal”, the “effect of co-treatment with haloperidol on amphetamine-induced locomotion” value ([6]; rats, haloperidol 0.3 mg/kg ip with Example 2) was “yielded the same effects whether or not Example 2 was present or absent” and the “effect of co-treatment with olanzapine on amphetamine-induced locomotion” value ([6]; rats, olanzapine 1 and 3 mg/kg ip with Example 2) was “yielded the same effects whether or not Example 2 was present or absent”.

In the case of `O=C(CCCN1CCC(O)(c2ccc(Cl)cc2)CC1)c1ccc(F)cc1` [haloperidol, reference compound], the ED50 at 30 min [7] is reported as 0.64 mg/kg, the “induction of catalepsy compared to vehicle treated animals” value ([2]; haloperidol 1 and 3 mg/kg) is reported as “significantly induces catalepsy” and the “reversal of locomotor hyperactivity” value ([6]; haloperidol 0.3 mg/kg ip) is reported as “highly significant reversal”.

For `C[C@]12N[C@H](Cc3ccccc31)c1ccccc12` [MK-801, dizocilpine], the “latent inhibition (LI) with 40 preexposures and 5 conditioning trials” value ([3]; MK-801 0.05 mg/kg i.p., 30 minutes before conditioning) was “showed LI in spite of extended conditioning”.

With `NCC(=O)O` [glycine, Glycine] the “MK-801-induced abnormally persistent LI” value ([3]; glycine 0.8 g/kg i.p., 30 minutes prior to conditioning) was “reversed”.
